Test results: US4272538A, “5-Nitro-imidazole with antiprotozoic activity” (Rotta Research Laboratorium S.p.A., priority 1978, dated 1981)
Values after ≈ are worked out from the molar mass of the structure shown.

Key:
[1] = system: Trichomonas Vaginalis ISM 66/22; test: In vitro activity (M.I.C.) against Trichomonas Vaginalis; type: cell-based; conditions: for MIC: Trichomonas vaginalis, average ± S.E., 5 tests, 48 hours at 37° C., ISM 66/22, pH 6.0, read-out: minimum inhibiting concentration (M.I.C.), Trichomonas Vaginalis; for anti-protozoic activity in vitro: Table 1, also E. Histolytica
Experimental: (§1) The method of evaluation of the activity of the compounds of the invention "in vitro" consists of introducing various quantities of the substance to be tested, into a culture medium previously inoculated with a predetermined number of test germs.
(§2) After 48 hours of incubation at 37° C. it is possible to evaluate the growth of the micro-organism in the culture broth; thus the minimum concentration (M.I.C.) which inhibits the growth of the microorganisms "in vitro" is determined.
(A1) Trichomonas Vaginalis
The Trichomonas Vaginalis stocks are kept vital by transfer every 48 hours into Trichosel BBL substrate containing 15% in weight/volume of deactivated horse serum. The composition of the Trichosel BBL substrate is disclosed for example in Exp. Biol. and Med., Vol. 67, p. 304 (1948).
The inoculation was carried out in the proportion of 5% of the volume of the above substrate, to which has been added 5% in weight/volume of horse serum. The evaluation is macroscopic, the presence or lack of live cells in the culture medium being observed.
pH of the inoculated culture medium: 6.0.

Entamoeba Histolytica [2] = test: In vitro activity (M.I.C.) against Entamoeba Histolytica; type: cell-based; conditions: average ± S.E., 5 tests, 48 hours at 37° C., Pavlova substrate, read-out: minimum inhibiting concentration (M.I.C.), E. Histolytica
Experimental: as §1, §2
(A2) Entamoeba Histolytica
The stock is kept vital by transfer every 48 hours at 37° C. into slants containing a bi-phase medium composed of 5 ml of coagulated horse serum and […] of Pavlova substrate containing 15% in weight/volume of deactivated horse serum. The Pavlova substrate is described for example in Ann. Trop. Med. Parasitology, Vol. 40, p. 130 (1946).
The measurement of the M.I.C. is carried out in test tubes containing 0.5 ml of coagulated horse serum and the liquid phase of the Pavlova substrate containing 5% in weight/volume of horse serum, previously inoculated in the proportion of about 10,000 cells per ml of substrate.
The evaluation is microscopic, the presence or lack of live cells in the culture medium being observed.

Trichomonas Vaginalis = test: Systemic activity in mice infected subcutaneously with Trichomonas Vaginalis; type: in vivo; conditions: for ED84: Trichomonas vaginalis, 168 h, oral, twice a day over 5 days, dose preventing infection in 84% of animals, (S)/(NS) = significance of regression line, read-out: ED84, anti-trichomonas activity in mice; for Index of relative activity calc. on ED84 (vs metronidazole), mice: relative to metronidazole = 1; for anti-trichomonas activity in vivo in mice: Table 2
Experimental: (B1) Systematic activity in mice infected subcutaneously with Trichomonas Vaginalis Female Charles River mice of about 20 grams weight are used and injected subcutaneously with 1 ml of a physiological solution containing 10^6 cells of Trichomonas Vaginalis (evaluated by means of counting in a Burker chamber), resulting from a 24 hour culture in Trichosel BBL substrate containing 15% in weight/volume of deactivated horse serum. Abscesses are thus developed in the place of infection which may burst open externally, piercing the skin. To establish the activity of a product, groups of 10 animals per tested dose are used, and on the 7th day the presence or absence of abscesses are determined (evaluated in terms of all or nothing). The compounds are administered orally, dissolved or in suspension in water, over 5 days, twice a day, the treatment being started 30 minutes after infection. The results obtained are recorded in Table 2 which gives the ED84 in mg/kg for oral administration, that is the dose of the drug capable of preventing the formation of the infection in 84% of the infected animals.

[3] = Acute oral toxicity in mice; conditions: mouse, in vivo, within 14 days
Experimental: The acute oral toxicity of the compounds according to the invention was also determined in mice and compared with that of other nitro-imidazole compounds used previously as control standards.
For every dose tested, the substance was administered orally to groups of 10 female CF1 mice, having an average weight of about 20 grams, in an aqueous suspension containing 10% of gum arabic, the volume administered being 1 ml/100 grams of body weight. The LD50 was determined, that is, the dose expressed in mg/kg of body weight which induces the death of 50% of the animals treated within 14 days from administration.

[4] = system: Salmonella Typhimurium TA 100; test: Ames mutagenesis test with metabolic activation; type: cell-based; conditions: for Revertants/plate (max value): 15.62 to 1000 μg/plate, control background about 100 revertants per plate; for Index of relative mutagenic power (Compound/Metronidazole): relative to metronidazole = 1
Experimental: Mutagenesis test with metabolic activation on histidine (-) strains of Salmonella Typhimurium by the Ames method
The capacity for reversing the histidine (-) mutation which is peculiar to the TA 100 strain was measured, this strain being recommended for chemio-therapeutic screening in that it has a resistance factor R; TA 100 is a carrier of a mutation caused by the substitution of a pair of bases. The method used is that described by Ames et al. (Mutation Res. 31, (1975), 347-364).

Entamoeba Histolytica [5] = test: Systemic activity on hepatic abscess from Entamoeba Histolytica in the hamster; type: in vivo; conditions: for ED84: Entamoeba histolytica, 72 h, oral, twice a day for four days, dose reducing abscess weight by 84% vs controls, (S)/(NS) = significance of regression line, read-out: ED84, anti-amoebic activity in the hamster; for Index of relative activity calc. on the ED84 (vs metronidazole), hamster: relative to metronidazole = 1
Experimental: (B2) Systemic activity on hepatic abscess from Entamoeba Histolytica in the hamster Golden hamsters of the strain RRL-805 of about 50 grams weight are used; after laparatomy, 0.05 ml of a suspension of amoebae (cellular density of about 10^6 amoebae/ml) is injected into the right hepatic lobe. Abscesses develop on the liver, the average weight of which is determined after killing of the animals 72 hours after the injection. The drugs under examination are administered orally twice a day for four days, the treatment being started the day before the infection. The evaluation is carried out by comparing the average weight of the hepatic abscesses developed in the group of animals treated with a drug with that of a control group. The results obtained are recorded in Table 3 which gives the ED84 in mg/kg administered orally, that is the dose of the drug capable of reducing the weight of the abscesses by 84% with respect to the controls. The values given were calculated from the regression line obtained from the results of a series of experiments, each compound being administered to at least 5 groups of six animals at generally different doses.

## O=C1NCCN1c1ncc([N+](=O)[O-])s1 [NIRIDAZOLE, reference compound]
[1]
  MIC: 1.22 ± 0.411 mg/L (≈ 5.7 µM)
Entamoeba Histolytica [2]
  MIC: 28 ± 9.6 mg/L (≈ 131 µM)

## CCN1CCN(CCCn2cncc2[N+](=O)[O-])CC1 [Example 2, 1-ethyl-4-[3-(5-nitro-1-H-imidazol-1-yl)-propyl]-piperazine]
Trichomonas Vaginalis
  ED84: 66 mg/kg
  Index of relative activity calc. on ED84 (vs metronidazole), mice: 0.43
[3]
  LD50 at 336 h: 900 mg/kg
[1]
  MIC: 5.8 ± 1.12 mg/L (≈ 21.7 µM)
Entamoeba Histolytica [2]
  MIC: 60.1 ± 14.2 mg/L (≈ 225 µM)

## CN1CCN(CCCn2cncc2[N+](=O)[O-])CC1 [Example 1, 1-methyl-4-[3-(5-nitro-1-H-imidazol-1-yl)-propyl]-piperazine]
Trichomonas Vaginalis
  ED84: 69.4 mg/kg
  Index of relative activity calc. on ED84 (vs metronidazole), mice: 0.41
[3]
  LD50 at 336 h: 810 mg/kg
[4]
  Revertants/plate (max value): 780 Revertants/plate
  Index of relative mutagenic power (Compound/Metronidazole): 0.17
Entamoeba Histolytica [5]
  ED84: 86.3 mg/kg
  Index of relative activity calc. on the ED84 (vs metronidazole), hamster: 1.2
[1]
  MIC: 6.3 ± 1.37 mg/L (≈ 24.9 µM)
Entamoeba Histolytica [2]
  MIC: 51.2 ± 43.1 mg/L (≈ 202 µM)

## COC(=O)N1CCN(CCCn2c([N+](=O)[O-])cnc2C)CC1 [Example 7]
[3]
  LD50 at 336 h: 2420 mg/kg
[1]
  MIC: 2.2 ± 0.85 mg/L (≈ 7.07 µM)
Entamoeba Histolytica [2]
  MIC: 45 ± 11.5 mg/L (≈ 145 µM)

## CCOC(=O)N1CCN(CCCn2c([N+](=O)[O-])cnc2C)CC1 [Example 8, 1-carboxyethyl-4-[3-(2-methyl-5-nitro-1-H-imidazol-1-yl)-propyl]-piperazine]
Trichomonas Vaginalis
  anti-trichomonas activity in vivo in mice: the activity is reduced
  ED84: 150 mg/kg
  Index of relative activity calc. on ED84 (vs metronidazole), mice: 0.19
[3]
  LD50 at 336 h: 2630 mg/kg
[4]
  Revertants/plate (max value): 1140 Revertants/plate
  Index of relative mutagenic power (Compound/Metronidazole): 0.25
Entamoeba Histolytica [5]
  ED84: 75.5 mg/kg
  Index of relative activity calc. on the ED84 (vs metronidazole), hamster: 1.4
[1]
  anti-protozoic activity in vitro: very active in vitro
  MIC: 0.7 ± 0.13 mg/L (≈ 2.15 µM)
Entamoeba Histolytica [2]
  MIC: 40.1 ± 10.8 mg/L (≈ 123 µM)

## CCc1ncc([N+](=O)[O-])n1CCCN1CCN(C)CC1 [Example 10, 1-methyl-4-[3-(2-ethyl-5-nitro-1-H-imidazol-1-yl)-propyl]-piperazine]
Trichomonas Vaginalis
  ED84: 30.7 mg/kg
  Index of relative activity calc. on ED84 (vs metronidazole), mice: 0.93
[3]
  LD50 at 336 h: 1960 mg/kg
[1]
  MIC: 2.7 ± 0.85 mg/L (≈ 9.6 µM)
Entamoeba Histolytica [2]
  MIC: 26 ± 10.4 mg/L (≈ 92.4 µM)

## Cc1ncc([N+](=O)[O-])n1CCCN1CCN(C)CC1 [Example 6, 1-methyl-4-[3-(2-methyl-5-nitro-1-H-imidazol-1-yl)-propyl]-piperazine]
Trichomonas Vaginalis
  ED84: 41.2 mg/kg
  Index of relative activity calc. on ED84 (vs metronidazole), mice: 0.69
[3]
  LD50 at 336 h: 1630 mg/kg
[4]
  Revertants/plate (max value): 510 Revertants/plate
  Index of relative mutagenic power (Compound/Metronidazole): 0.11
Entamoeba Histolytica [5]
  ED84: 54.2 mg/kg
  Index of relative activity calc. on the ED84 (vs metronidazole), hamster: 2
Entamoeba Histolytica [5]; Table 3
  anti-amoebic activity in hamster: the greatest activity in this test
Entamoeba Histolytica [5]; hamster hepatic abscess, Table 3
  activity compared with metronidazole (times): about twice
[1]
  MIC: 3.2 ± 0.82 mg/L (≈ 12 µM)
Entamoeba Histolytica [2]
  MIC: 22 ± 8.5 mg/L (≈ 82.3 µM)

## CN1CCN(CCn2c([N+](=O)[O-])cnc2-c2ccccc2)CC1 [Example 12, 1-methyl-4-[2-(2-phenyl-5-nitro-1-H-imidazol-1-yl)-ethyl]-piperazine]
[3]
  LD50 at 336 h: 3320 mg/kg
[4]
  Revertants/plate (max value): 750 Revertants/plate
  Index of relative mutagenic power (Compound/Metronidazole): 0.16
[1]
  MIC: 8.1 ± 2.1 mg/L (≈ 25.7 µM)
Entamoeba Histolytica [2]
  MIC: 43 ± 9.8 mg/L (≈ 136 µM)

## CCOC(=O)N1CCN(CCn2cncc2[N+](=O)[O-])CC1 [Example 5, 1-carboxyethyl-4-[2-(5-nitro-1-H-imidazol-1-yl)-ethyl]-piperazine]
[3]
  LD50 at 336 h: 2310 mg/kg
[1]
  MIC: 2.4 ± 0.7 mg/L (≈ 8.07 µM)
Entamoeba Histolytica [2]
  MIC: 66.1 ± 16 mg/L (≈ 222 µM)

## Cc1ncc([N+](=O)[O-])n1CCN1CCN(C)CC1 [Example 9, 1-methyl-4-[2-(2-methyl-5-nitro-1-H-imidazol-1-yl)-ethyl]-piperazine]
Trichomonas Vaginalis
  ED84: 60.5 mg/kg
  Index of relative activity calc. on ED84 (vs metronidazole), mice: 0.47
[3]
  LD50 at 336 h: 1700 mg/kg
[4]
  Revertants/plate (max value): 460 Revertants/plate
  Index of relative mutagenic power (Compound/Metronidazole): 0.10
Entamoeba Histolytica [5]
  ED84: 77.1 mg/kg
  Index of relative activity calc. on the ED84 (vs metronidazole), hamster: 1.4
[1]
  MIC: 3.4 ± 1 mg/L (≈ 13.4 µM)
Entamoeba Histolytica [2]
  MIC: 26 ± 8 mg/L (≈ 103 µM)

## CCOC(=O)N1CCN(CCCn2cncc2[N+](=O)[O-])CC1 [Example 3, 1-carboxyethyl-4-[3-(5-nitro-1-H-imidazol-1-yl)-propyl]-piperazine]
Trichomonas Vaginalis
  anti-trichomonas activity in vivo in mice: the activity is reduced
  ED84: 170 mg/kg
  Index of relative activity calc. on ED84 (vs metronidazole), mice: 0.16
[3]
  LD50 at 336 h: 2430 mg/kg
[4]
  Revertants/plate (max value): 1400 Revertants/plate
  Index of relative mutagenic power (Compound/Metronidazole): 0.31
Entamoeba Histolytica [5]
  ED84: 84.7 mg/kg
  Index of relative activity calc. on the ED84 (vs metronidazole), hamster: 1.2
[1]
  anti-protozoic activity in vitro: very active in vitro
  MIC: 0.56 ± 0.1 mg/L (≈ 1.8 µM)
Entamoeba Histolytica [2]
  MIC: 53.1 ± 11.5 mg/L (≈ 171 µM)

## CN1CCN(CCCn2c([N+](=O)[O-])cnc2-c2ccccc2)CC1 [Example 11, 1-methyl-4-[3-(2-phenyl-5-nitro-1-H-imidazol-1-yl)-propyl]-piperazine]
Trichomonas Vaginalis
  ED84: 48 mg/kg
  Index of relative activity calc. on ED84 (vs metronidazole), mice: 0.59
[3]
  LD50 at 336 h: 1680 mg/kg
Entamoeba Histolytica [5]
  ED84: 130 mg/kg
  Index of relative activity calc. on the ED84 (vs metronidazole), hamster: 0.8
[1]
  MIC: 5.6 ± 1.28 mg/L (≈ 17 µM)
Entamoeba Histolytica [2]
  MIC: 39 ± 12.6 mg/L (≈ 118 µM)
